Assay [1] has as its system uterotropic (estrogenic) activity. The assay can be described thus: Uterotropic (estrogenic) activity in vivo.
For assay [2] the test system is unchanged. The settings on record: relative to estradiol, Peters et al.; cited from earlier work.
Assay [3] deals with T1, estrogen receptor (Homo sapiens, UniProt P03372).
T1 sequence (P03372 1-595): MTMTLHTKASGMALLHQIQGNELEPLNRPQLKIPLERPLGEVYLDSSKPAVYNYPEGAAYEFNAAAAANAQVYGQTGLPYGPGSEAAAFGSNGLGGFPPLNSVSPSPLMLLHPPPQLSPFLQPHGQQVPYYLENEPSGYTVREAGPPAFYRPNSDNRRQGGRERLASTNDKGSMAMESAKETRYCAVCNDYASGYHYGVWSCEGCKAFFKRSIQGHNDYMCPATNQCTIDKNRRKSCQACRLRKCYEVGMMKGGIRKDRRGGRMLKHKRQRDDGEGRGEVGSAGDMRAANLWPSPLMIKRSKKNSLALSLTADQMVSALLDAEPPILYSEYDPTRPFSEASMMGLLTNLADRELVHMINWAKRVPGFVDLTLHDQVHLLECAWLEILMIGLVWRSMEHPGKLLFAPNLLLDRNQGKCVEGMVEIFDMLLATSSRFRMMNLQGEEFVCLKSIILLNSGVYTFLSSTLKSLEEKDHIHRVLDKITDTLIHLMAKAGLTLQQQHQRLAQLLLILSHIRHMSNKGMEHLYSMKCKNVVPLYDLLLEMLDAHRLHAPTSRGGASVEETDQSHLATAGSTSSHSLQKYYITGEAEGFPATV
The settings on record: cited from earlier work.

Assay [4] relates to DNA. Briefly: Binding of piperidinedione to DNA. The text has this:
(§1) The mode of action of these piperidinediones is still not proven. […] At the same time, direct binding of such anti-estrogens to DNA appears to be weak. Taken as a whole, these findings support the possibility of a weak interaction of the piperidinediones with both DNA and the estrogen receptor, involving a receptor mediated insertion of the ligand into DNA.

The test system of assay [5] is Nb2 lymphoma cells. The assay can be described thus: DNA synthesis measured by thymidine incorporation. The assay is classed as cell-based, rat.
Excerpt: as §1

Assay [6] has as its target T1, estrogen receptor. The assay can be described thus: Estrogen receptor binding.
For assay [7], the system named is MCF-7 (E-3) human breast cancer cells. Briefly: Inhibition of estrogen stimulated growth of MCF-7 (E-3) cells, 9 day model. The conditions noted are these: for IC50: MCF-7 (E-3), estrogen stimulated growth, 9 day model; for inhibition of estrogen stimulated cell growth: MCF-7 (E-3) cells. The class given is cell-based.
In assay [8] the test system is various animal and human tumor cells. Briefly: Growth inhibition in various animal and human tumor cells. The assay is classed as cell-based. As for the experimental part:
(§2) These synthetic derivatives were assessed for biological potency by measuring their growth inhibitory effects on various cell lines using concentrations of […] based on the reported IC50 of 3-phenylacetylamino-2,6 piperidinedione in Nb2 cells.
3-Phenylacetylamino-2,6-piperidinedione (A10) is a modified amino-acid derivative, which was originally isolated from freeze-dried human urine. […] The focus of the following study was to develop more- potent analogs. […] It was observed that placing a hydroxyl group at the para position of the phenyl group of A10 would enable a second hydrogen bond to form thereby substantially enhancing fit as reported by Hendry et al., J. Steroid Biochem. Molec. Biol. 48:495-505 (1994), the teachings of which are hereby incorporated by reference in their entirety.

Assay [9] relates to MCF-7 human breast cancer cells. The assay can be described thus: MCF-7 cell growth (cell number) with SGI compounds. The assay is classed as cell-based. The settings on record: dose 10^−8 M; control 252,197 cells.
The subject of assay [10] is androgenic activity. The settings on record: published findings by Hilgar and Hummel; cited from earlier work.
For assay [11], the system named is rat Nb2 lymphoma cells. Briefly: Inhibition of prolactin stimulated growth of Nb2 lymphoma cells. The class given is cell-based.
Assay [12] deals with YAK lymphoma cells. The assay can be described thus: Growth inhibition in YAK lymphoma cells. The assay is classed as cell-based. The conditions noted are these: rank among derivatives. The protocol: as §2
Assay [13] concerns human leukemia (K652) cells. Briefly: Growth inhibition in human leukemia K562 cells. The class given is cell-based.

“Also recorded” adds a separate entry of the source. Counter-ions that a name gives are not always drawn. Like-named read-outs stand apart in the source and are kept apart here.

As to `C[C@]12CC[C@H]3c4ccc(O)cc4CC[C@H]3[C@@H]1CC[C@@H]2O` [9β-estradiol], in [1], the “estrogenic (uterotropic) activity in vivo” value is “inactive; also recorded: little uterotropic activity”.
Take `C[C@@H]1Cc2cc(O)ccc2[C@@H]2[C@@H]1[C@@H]1CC[C@H](O)[C@@]1(C)C[C@@H]2O[N+](=O)[O-]` [7α-methylestradiol-11β-nitrate ester, 3,11β, 17β-trihydroxy-7α-methylestra-1,3, 5 (10)-triene 11-nitrate ester]: in assay [2], the uterotropic activity result is reported as “considerably greater than that of estradiol”. Further, the “binding to the estrogen receptor relative to estradiol” value in assay [3] is “less than 6 % of the binding of estradiol”.
Consider `O=C1CCC(NC(=O)Cc2ccccc2)C(=O)N1` (stereo not drawn) [3-phenylacetylamino-2,6-piperidinedione], for which the “covalent adducts with DNA” value in assay [4] is “No covalent adducts”. Besides, in assay [4] (in comparison to classical intercalating drugs), the “binding to DNA” value is “weak and reversible”. Further, in assay [5], the “DNA synthesis measured by thymidine incorporation” value was “significantly inhibited”. Further, the “binding for the estrogen receptor” value in assay [6] is reported as “neither 3-phenylacetylamino-2,6-piperidinedione nor phydroxy-3-phenylacetylamino-2,6-piperidinedione exhibited appreciable binding”. Also, the half-maximal inhibitory concentration (IC50) in [7] (Homo sapiens, MCF7, 216 h) was determined as 3 mM. In addition, the “inhibition of estrogen stimulated cell growth” value in assay [7] was “inhibited”.
In the case of `CC(=O)O[C@H]1C[C@]2(C)[C@@H](O)CC[C@H]2[C@@H]2CCc3cc(O)ccc3[C@H]21` [11β-acetoxyestradiol], in assay [1], the “estrogenic (uterotropic) activity in vivo” value was “more active than estradiol”.
Turning to `O=C1CCC(NC(=O)Cc2ccc(F)cc2)C(=O)N1` (stereo not drawn) [p-fluoro derivative], the “potency in tumor cell growth inhibition relative to A10” value in assay [8] was “lack of increased potency”.
With `CC/C(=C(\c1ccccc1)c1ccc(OCCN(C)C)cc1)c1ccccc1` [tamoxifen citrate], the “number of MCF-7 cells” value in assay [9] is given as 187,759 cells.
As for `C[C@]12CCC(=O)C[C@@H]1CC[C@@H]1[C@@H]2CC[C@]2(C)[C@@H](O)CC[C@@H]12` [5α-dihydrotestosterone], the androgenic activity result in assay [10] is recorded as “highly active androgen”.
As to “p-hydroxy-3-phenylacetylamino-2,6-piperidinedione”, in [11] (Nb2 lymphoma cells, 10^−4 M to 10^−3 M), the “growth inhibition over concentration range” value was “more active in Nb2 lymphoma cells than 3-phenylacetylamino-2,6 piperidinedione”. In addition, the “inhibition of prolactin stimulated growth” value in assay [11] (rat Nb2 lymphoma cells) is “greatest activity”. In addition, the “potency in tumor cell growth inhibition relative to A10” value in assay [8] is given as “most potent compound”; in assay [8] (listed as p-OH-A10) it was “as much as an order of magnitude more active than A10”. Also, in assay [6], the “binding for the estrogen receptor” value is on record as “neither 3-phenylacetylamino-2,6-piperidinedione nor phydroxy-3-phenylacetylamino-2,6-piperidinedione exhibited appreciable binding”. The growth inhibitory effect entry was “most active derivative” in [12] and “most active analog” in [13] (rank among analogs). Moreover, in assay [7], the “inhibition of estrogen stimulated cell growth” value is reported as “inhibited”. The compound further came in with an IC50 in assay [7] of 0.007 mM. The “dose response comparison of growth inhibition” value in assay [13] (10^−5 to 10^−2 M) was “more active than the unsubstituted compound”.
Consider `C[C@]12CCC(=O)C[C@@H]1CC[C@@H]1[C@@H]2CC[C@]2(C)[C@@H](O)CC[C@@H]12` [5β-dihydrotestosterone], for which the androgenic activity entry in [10] is “essentially inactive”.
